The source of these data is patent publication US20100183629A1, “ANTAGONISTS OF ENDOTHELIAL DIFFERENTIATION GENE SUBFAMILY 3 (EDG-3, S1P3) RECEPTORS FOR PREVENTION AND TREATMENT OF OCULAR DISORDERS” (ALCON RESEARCH, LTD., priority 2006, published 2010).

This test concerns the target T1, Edg3 receptor (Homo sapiens, UniProt Q99500).
T1 construct: endogenous in cells; host or cells: cultured human trabecular meshwork (TM) cells
In words: PAI-1 levels (ELISA) in supernatants of treated human TM cell cultures, Edg3 receptor antagonism. Format: cell-based. The following applies: human trabecular meshwork cell cultures, 24 hours. The procedure:
FIG. 2A and FIG. 2B. Human trabecular meshwork cell cultures were treated with (open circles) or without (closed circles) the Edg3 receptor subtype antagonist CAY10444 in the presence of various amounts of the endogenous Edg receptor agonist S1P (FIG. 2A) or in the presence of various amounts of FTY720, a structural analog of SIP (FIG. 2B). Twenty-four hours later, the levels of the secreted PAI-1 protein were then determined by ELISA of supernatant aliquots from the treated cultures as cited in Example 2.
The effect of Edg3 receptor antagonism on expression of extracellular matrix-related proteins by cultured human trabecular meshwork cells is determined as follows. […] Levels of extracellular matrix-related proteins, such as fibronectin, plasminogen activator inhibitor I (PAI-1), collagens, fibrillin, vitronectin, laminin, thrombospondin I, proteoglycans, or integrins, are then measured in each cell culture group via standard enzyme-linked immunoabsorbent assays (ELISA). […]
An example of the effect of Edg3 receptor antagonism on PAI-1 levels in supernatants from treated human TM cell cultures is shown in FIG. 2A and FIG. 2B. […] Twenty-four hours later, the levels of the secreted PAI-1 protein were then determined by ELISA of supernatant aliquots from the treated cultures.

T1 sequence (Q99500 whole entry): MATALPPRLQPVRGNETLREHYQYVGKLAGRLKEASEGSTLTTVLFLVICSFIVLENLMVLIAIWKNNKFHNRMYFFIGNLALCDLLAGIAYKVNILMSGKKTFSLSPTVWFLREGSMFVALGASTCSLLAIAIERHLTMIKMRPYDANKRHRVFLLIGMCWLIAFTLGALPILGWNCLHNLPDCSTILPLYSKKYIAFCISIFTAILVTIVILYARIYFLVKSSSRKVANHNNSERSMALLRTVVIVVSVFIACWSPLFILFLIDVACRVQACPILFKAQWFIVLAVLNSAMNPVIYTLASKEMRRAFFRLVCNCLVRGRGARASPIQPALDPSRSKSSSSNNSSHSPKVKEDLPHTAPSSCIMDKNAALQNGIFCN

On to `CCCCCCCCCCCC1N[C@H](C(=O)O)CS1` (some centres unmarked) [CAY10444], for which, under “various amounts of FTY720, ELISA of supernatant (FIG. 2B)”, the “antagonism of FTY720 effect on secreted PAI-1 protein level” value is “potently and efficaciously antagonized”. For the same molecule, the “antagonism of S1P effect on secreted PAI-1 protein level” value (various amounts of S1P, ELISA of supernatant (FIG. 2A)) is “potently and efficaciously antagonized”.
